The source of these data is PubChem BioAssay AID624462 (National Center for Advancing Translational Sciences (NCATS), 2012).

Structures are written as SMILES. In brackets after ≈: the same amount, converted by molar mass.

For the data set, the system named is PBS pH 7.4 kinetic solubility, LC-UV/MS. Description: qHTS for Inhibitors of mutant isocitrate dehydrogenase 1 (IDH1): Aqueous Kinetic Solubility. Conditions: stronger effect = higher value. An excerpt:
Malignant glioblastomas (WHO grade IV), including primary and secondary glioblastomas, are among the most lethal with a median survival of one year, and unfortunately they are also the most prevalent type of brain tumors. By and large the standard of care of gliomas remains the use of the oral alkylating agent temozolomide and radiotherapy following surgical tumor resection. There is an urgent unmet medical need for novel therapeutics for gliomas. IDH mutations occur in up to 70% of grade II-IV secondary glioblastomas, and IDH1 R132H is the most prevalent mutation. […] Wild-type (WT) IDH1 catalyzes the conversion of isocitrate to a-ketoglutarate with the concomitant reduction of NADP+ to NADPH. In contrast, IDH1 R132H catalyzes the conversion of a-ketoglutarate to 2-hydroxyglutarate (2-HG) with the concomitant oxidation of NADPH to NADP+ [5]. Recently, a second significant advancement for the field was the finding that IDH is an oncogene, and that its metabolic product 2-HG may contribute to the pathogenesis of IDH-mutated cancers. […] Although this link to cancer is tantalizing, the direct evidence of how 2-HG drives pathogenesis of gliomas and AML remains a subject of further research. This bioassays provides profiling data on aqueous kinetic solubility (PBS @ pH7.4) of the IDH probe. […]
1. […] Concentration of the supernatant was determined by LC-UV or LC-MS/MS
(qHTS replaces the single test concentration by a dilution series.)

For orientation: solubility means the concentration that dissolves in the medium under given conditions. Regarding `Cc1ccccc1C(C(=O)NC1CCCC1)N(C(=O)Cn1cnc2ccccc21)c1cccc(F)c1` (stereo unspecified), the solubility was 54.3 µM (≈ 26.3 µg/mL).
